{"source": "patent US5336759A", "about": "“Biologically active peptide derived from frog (frog CNP)” (priority 1990, dated 1994)", "key": {"[1]": {"system": "chicken rectum", "experimental": "Relaxant activity in chicken rectum was measured in accordance with the method of […] and Currie ([…]. and Matsuo, H., Biochem. Biophys. Res. Commun., 118, 131-139, 1984; Currie, […]., Cole, […]. and Needleman, P. Science, 221, 71-73, 1983). The values are averages of six repeats. […] Although fCNP lacked the tail sequence at the C-terminal which had been considered to be important for analog peptides in displaying biological activities such as diuretic action (Watanabe, T. X., Noda, Y., Chino […]. and Imai, M. Eur. J. […] Relative activity is defined as the activity of equimolar amount of peptides when the activity of α-hANP is 100."}, "[2]": {"system": "anesthetized rats", "test": "Vasodepressor action (blood pressure) in anesthetized rats", "type": "in vivo, rat", "set-up": "decrease of blood pressure at the contract phase of heart: unit not given here", "experimental": "Diuretic action of fCNP was measured in accordance with the method described in […] et al and Sudoh et al ([…]. et al., Biochem. Biophys. Res. Commun., 118, 131-139, 1984; Sudoh, […]., Minamino, N. and Matsuo, H. Nature, 332, 78-81 , 1988). Male SD rats (weight 300-400 g) were anesthetized by intraperitoneally receiving 50 mg/kg pentobarbital, and a tracheal cannula (PE-240, Cray Adams) was provided to secure an airway. A cannula for measuring the blood pressure (PE-50) was inserted into one of the femoral arteries, and Ringer solution was injected through a cannula (PE-10) inserted into the femoral venous, at a constant rate of 1.8 ml/hr. Urine was collected into a test tube through a bladder cannula of silastic tube (inside diameter 0.02 inch, outside diameter 0.037 inch, Dow Corning). The collection of urine was carried out for 15 min before the administration of the peptides, at 5 min intervals after the administration till 15 min, and then at appropriate time intervals. The effect of the peptides was measured by comparing the amount of the urine samples and the concentration of the electrolyte in the urine samples, as well as by the change of the blood pressure. In the above assay, a predetermined amount of fCNP was dissolved in 0.1N acetic acid, and neutralized with one tenth volume of 1.3M Tris solution. […]"}, "[3]": {"system": "anesthetized rats", "test": "Diuretic and natriuretic action in anesthetized rats", "type": "in vivo, rat", "conditions": "for excretion Cl- / excretion K+ / excretion Na+ / excretion urine: urine collected 15 min before and after injection, Means±S.E.M., three rats", "experimental": "Diuretic action of fCNP was measured in accordance with the method described in Kangawa et al and Sudoh et al (Kangawa, K. et al., Biochem. Biophys. Res. Commun., 118, 131-139, 1984; Sudoh, T., Kangawa, K., Minamino, N. and Matsuo, H. Nature, 332, 78-81 , 1988). Male SD rats (weight 300-400 g) were anesthetized by intraperitoneally receiving 50 mg/kg pentobarbital, and a tracheal cannula (PE-240, Cray Adams) was provided to secure an airway. A cannula for measuring the blood pressure (PE-50) was inserted into one of the femoral arteries, and Ringer solution was injected through a cannula (PE-10) inserted into the femoral venous, at a constant rate of 1.8 ml/hr. Urine was collected into a test tube through a bladder cannula of silastic tube (inside diameter 0.02 inch, outside diameter 0.037 inch, Dow Corning). The collection of urine was carried out for 15 min before the administration of the peptides, at 5 min intervals after the administration till 15 min, and then at appropriate time intervals. The effect of the peptides was measured by comparing the amount of the urine samples and the concentration of the electrolyte in the urine samples, as well as by the change of the blood pressure.\nIn the above assay, a predetermined amount of fCNP was dissolved in 0.1N acetic acid, and neutralized with one tenth volume of 1.3M Tris solution. Then, the solution was diluted with 50 μl of a sterile physiological water, and administered through the cervical vein.\nIn Table 3, diuretic and natriuretic responses are shown in terms of the amount of the urine, the percentages in the decreases of the excretion of Na^+, K^+ and Cl^- (Means±S.E.M.), in which urine samples were collected separately over 15 min before and after the intravenous injection of the peptides to anesthetized rats. Three rats were used for each peptide."}, "[4]": {"conditions": "relaxant activity of equimolar amount of peptide, activity of α-hANP = 100, averages of six repeats"}}, "note": "Like-named read-outs stand apart in the source and are kept apart here. Bridge positions count the residues as written; N and C are the ends. Ends that are not written are not given here. Peptide text beside a SMILES is read from it.", "data": [{"molecule": "CC[C@H](C)[C@@H]1NC(=O)[C@H](CCCNC(=N)N)NC(=O)[C@H](CC(=O)O)NC(=O)[C@H](CC(C)C)NC(=O)[C@H](CCCCN)NC(=O)[C@H](C(C)C)NC(=O)CNC(=O)[C@H](Cc2ccccc2)NC(=O)[C@@H](NC(=O)CNC(=O)[C@H](CCCNC(=N)N)NC(=O)[C@H](CO)NC(=O)[C@H](Cc2ccc(O)cc2)NC(=O)CN)CSSC[C@@H](C(=O)O)NC(=O)CNC(=O)[C@H](CC(C)C)NC(=O)CNC(=O)[C@H](CO)NC(=O)[C@H](Cc2ccccc2)NC(=O)[C@H](C)NC(=O)CNC1=O", "note": "[fCNP] (H-GYSRGCFGVKLDRIGAFSGLGC-OH; disulfide 6-22)", "values": [{"measurement": "relative activity", "setting": "[1]", "value": 321}, {"measurement": "relaxant activity in chicken rectum (in words)", "setting": "[1]", "value": "strong relaxant activity which was comparable to pCNP"}, {"measurement": "relaxant activity in chicken rectum (in words)", "setting": "[1]; listed as synthetic fCNP", "value": "positive relaxant activity"}, {"measurement": "relaxant activity, times higher than fANP-21", "setting": "[1]; relative to fANP-21", "value": "~7", "unit": "times"}, {"measurement": "relaxant activity, times higher than α-hANP", "setting": "[1]; relative to α-hANP", "value": "about 3 times"}, {"measurement": "decrease of blood pressure at the contract phase of heart", "setting": "[2]; 10 nmol of fCNP, over a period of 30 min, typical experiment", "value": "25-30"}, {"measurement": "vasodepressor action (in words)", "setting": "[2]; anesthetized rats", "value": "weak vasodepressor action"}, {"measurement": "excretion Cl-", "setting": "[3]; 30 μg/kg intravenous", "value": "193 ± 50", "unit": "%"}, {"measurement": "excretion K+", "setting": "[3]; 30 μg/kg intravenous", "value": "163 ± 54", "unit": "%"}, {"measurement": "excretion Na+", "setting": "[3]; 30 μg/kg intravenous", "value": "184 ± 26", "unit": "%"}, {"measurement": "excretion urine", "setting": "[3]; 30 μg/kg intravenous", "value": "192 ± 51", "unit": "%"}, {"measurement": "excretion Cl-", "setting": "[3]; 100 μg/kg intravenous", "value": "251 ± 43", "unit": "%"}, {"measurement": "excretion K+", "setting": "[3]; 100 μg/kg intravenous", "value": "217 ± 58", "unit": "%"}, {"measurement": "excretion Na+", "setting": "[3]; 100 μg/kg intravenous", "value": "344 ± 36", "unit": "%"}, {"measurement": "excretion urine", "setting": "[3]; 100 μg/kg intravenous", "value": "315 ± 24", "unit": "%"}, {"measurement": "excretion Cl-", "setting": "[3]; 300 μg/kg intravenous", "value": "369 ± 6", "unit": "%"}, {"measurement": "excretion K+", "setting": "[3]; 300 μg/kg intravenous", "value": "210 ± 33", "unit": "%"}, {"measurement": "excretion Na+", "setting": "[3]; 300 μg/kg intravenous", "value": "428 ± 29", "unit": "%"}, {"measurement": "excretion urine", "setting": "[3]; 300 μg/kg intravenous", "value": "410 ± 27", "unit": "%"}, {"measurement": "diuretic and natriuretic actions compared to that of α-hANP", "setting": "[3]; ratio to α-hANP, anesthetized rats", "value": "about 1/100"}]}, {"molecule": "pBNP-26: diuretic peptide; B-type (brain) natriuretic peptide (DSGCFGRRLDRIGSLSGLGCNVLRRY; ends and bridges not checked; cysteine pairing not given here; UniProt P07634 106-131, looked up) [reference compound]", "values": [{"measurement": "relative activity", "setting": "[1]; [4]", "value": 270}]}, {"molecule": "α-hANP: A-type (atrial) natriuretic peptide used as reference, activity set to 100 (SLRRSSCFGGRMDRIGAQSGLGCNSFRY; ends and bridges not checked; cysteine pairing not given here; UniProt P01160 124-151, looked up) [reference compound]", "values": [{"measurement": "relative activity", "setting": "[1]; [4]", "value": 100}, {"measurement": "excretion Cl-", "setting": "[3]; 3.0 μg/kg intravenous", "value": "445 ± 67", "unit": "%"}, {"measurement": "excretion K+", "setting": "[3]; 3.0 μg/kg intravenous", "value": "291 ± 19", "unit": "%"}, {"measurement": "excretion Na+", "setting": "[3]; 3.0 μg/kg intravenous", "value": "572 ± 84", "unit": "%"}, {"measurement": "excretion urine", "setting": "[3]; 3.0 μg/kg intravenous", "value": "461 ± 51", "unit": "%"}]}]}
